Where a name gives a salt, the structure may show the parent alone. Read-outs that look alike come from different tables or passages of the source.
Assays:
[1] = system: NCI-H292 lung cancer cells; assay: FDA drug screening, complete media vs cholesterol-free media with simvastatin (TABLE 2); type: cell-based, human
[2] = system: NCI-H292 lung cancer cells; assay: FDA drug screening, complete media vs cholesterol-free media without statin (TABLE 1); type: cell-based, human
[3] = NCI-H292 cells, FDA library drug in cholesterol-free media with simvastatin 0.04 μM
[4] = NCI-H292 cells, FDA library drug in complete media
[5] = complete media vs cholesterol-free media + simvastatin (0.04 μM), >0 enhanced anti-cancer activity, about 0 neutral, <0 antagonist
[6] = Complete minus Cholesterol-free, greater than 0 enhanced anti-cancer activity, about 0 neutral, below 0 antagonists
[7] = NCI-H292 cells in cholesterol-free media without statin
[8] = NCI-H292 cells in complete media
[9] = NCI-H292 cells, cholesterol-free media with simvastatin 0.04 μM, cell growth value in FDA drug screen
[10] = NCI-H292 cells, complete media, cell growth value in FDA drug screen
[11] = complete media minus cholesterol-free media + simvastatin, >0 enhanced anti-cancer activity, about 0 neutral, <0 antagonist
[12] = Complete minus Cholesterol-free, >0 enhanced anti-cancer activity, about 0 neutral, <0 antagonist
[13] = NCI-H292 cells, cholesterol-free media without statin
[14] = NCI-H292 cells, FDA drug library screen, cholesterol-free media with simvastatin 0.04 μM
[15] = NCI-H292 cells, FDA drug library screen, complete media
[16] = NCI-H292 cells, cholesterol-free media without statin, FDA drug library screen
[17] = NCI-H292 cells, complete media, FDA drug library screen
[18] = complete vs cholesterol-free media, >0 enhanced anti-cancer activity, about 0 neutral, <0 antagonist
[19] = NCI-H292 cells, cholesterol-free media with simvastatin 0.04 μM, FDA drug library screen (TABLE 2)
[20] = NCI-H292 cells, complete media, FDA drug library screen (TABLE 2)
[21] = complete media minus cholesterol-free media + simvastatin (0.04 μM), >0 enhanced anti-cancer activity, about 0 neutral, <0 antagonist
[22] = complete vs cholesterol-free media, greater than 0 enhanced anti-cancer activity, about 0 neutral, below 0 antagonists

Compound: c1cnc2cc3c(cc2n1)[C@@H]1CNC[C@H]3C1 [Varenicline]
- Cholesterol-free media + simvastatin (0.04 μM) [1, 3]: 1.359
- Complete Media [1, 4]: 1.033
- Difference [1, 5]: −0.33
- Difference [2, 6]: −0.54
- Cholesterol-free [2, 7]: 1.353
- Complete [2, 8]: 0.8146

Compound: CC(=O)O[C@H]1C[C@@H]2CC[C@@H]3[C@H](CC[C@@]4(C)[C@H]3C[C@H]([N+]3(C)CCCCC3)[C@@H]4OC(C)=O)[C@@]2(C)C[C@@H]1N1CCCCC1.[Br-] [Vecuronium (bromide)]
- Cholesterol-free media + simvastatin (0.04 μM) [1]: 0.9802
- Complete Media [1]: 0.9534
- Difference [1]: −0.03
- Cholesterol-free [2]: 1.045
- Complete [2]: 0.9438
- Difference [2]: −0.10

Compound: COC[C@H]1C[C@@H](c2nc(-c3ccc4c(c3)COc3cc5c(ccc6nc([C@@H]7CC[C@H](C)N7C(=O)[C@@H](NC(=O)OC)C(C)C)[nH]c65)cc3-4)c[nH]2)N(C(=O)[C@H](NC(=O)OC)c2ccccc2)C1 [Velpatasvir]
- Cholesterol-free media + simvastatin (0.04 μM) [1, 9]: 0.7455
- Complete Media [1, 10]: 0.7768
- Difference [1, 11]: 0.03
- Difference [2, 12]: −0.30
- Cholesterol-free [2, 13]: 1.014
- Complete ([2]; NCI-H292 cells, complete media): 0.7173

Compound: CCCS(=O)(=O)Nc1ccc(F)c(C(=O)c2c[nH]c3ncc(-c4ccc(Cl)cc4)cc23)c1F [Vemurafenib]
- Cholesterol-free media + simvastatin (0.04 μM) [1, 14]: 0.8006
- Complete Media [1, 15]: 0.9559
- Difference [1, 11]: 0.16
- Cholesterol-free [2, 16]: 0.6442
- Complete [2, 17]: 1.257
- Difference [2, 18]: 0.61

Compound: CC1(C)CCC(CN2CCN(c3ccc(C(=O)NS(=O)(=O)c4ccc(NCC5CCOCC5)c([N+](=O)[O-])c4)c(Oc4cnc5[nH]ccc5c4)c3)CC2)=C(c2ccc(Cl)cc2)C1 [Venetoclax]
- Cholesterol-free media + simvastatin (0.04 μM) [1, 14]: 1.767
- Complete Media [1, 15]: 1.658
- Difference [1, 5]: −0.11
- Difference [2, 6]: −0.58
- Cholesterol-free [2, 7]: 1.517
- Complete [2, 8]: 0.9332

Compound: COc1ccc(C(CN(C)C)C2(O)CCCCC2)cc1 (stereo not drawn) [Venlafaxine (hydrochloride)]
- Cholesterol-free media + simvastatin (0.04 μM) [1, 3]: 1.551
- Complete Media [1, 4]: 1.023
- Difference ([1]; complete media vs cholesterol-free media + simvastatin (0.04 μM), […]): −0.53
- Cholesterol-free [2, 13]: 1.049
- Complete ([2]; NCI-H292 cells, complete media): 0.7326
- Difference ([2]; complete vs cholesterol-free media, […]): −0.32

Compound: COc1ccc(CCN(C)CCCC(C#N)(c2ccc(OC)c(OC)c2)C(C)C)cc1OC (stereo not drawn) [Verapamil (hydrochloride)]
- Cholesterol-free media + simvastatin (0.04 μM) [1]: 1.071
- Complete Media [1]: 1.013
- Difference [1]: −0.06
- Cholesterol-free [2]: 0.9873
- Complete [2]: 0.8558
- Difference [2]: −0.13

Compound: COc1ccc(CCO[C@@H]2CCCC[C@H]2N2CC[C@@H](O)C2)cc1OC [Vernakalant (Hydrochloride)]
- Cholesterol-free media + simvastatin (0.04 μM) [1, 9]: 1.555
- Complete Media [1, 10]: 1.614
- Difference [1, 11]: 0.06
- Difference [2, 12]: −0.26
- Cholesterol-free [2, 13]: 1.252
- Complete ([2]; NCI-H292 cells, complete media): 0.9876

Compound: COc1ccc(C(=O)N2CCN(c3ccc4c(c3)CCC(=O)N4)CC2)cc1OC [Vesnarinone]
- Cholesterol-free media + simvastatin (0.04 μM) [1, 19]: 0.9506
- Complete Media [1, 20]: 0.9031
- Difference [1, 21]: −0.05
- Cholesterol-free [2, 16]: 0.9756
- Complete [2, 17]: 1.197
- Difference [2, 18]: 0.22

Compound: Nc1ncnc2c1ncn2[C@@H]1O[C@H](CO)[C@@H](O)[C@@H]1O [Vidarabine]
- Cholesterol-free media + simvastatin (0.04 μM) ([1]; NCI-H292 cells, drug in cholesterol-free media with simvastatin 0.04 μM): 0.9857
- Complete Media ([1]; NCI-H292 cells, drug in complete media): 0.8059
- Difference [1, 5]: −0.18
- Cholesterol-free [2, 13]: 1.542
- Complete ([2]; NCI-H292 cells, complete media): 1.194
- Difference [2, 22]: −0.35

Compound: C=CC(N)CCC(=O)O (stereo not drawn) [Vigabatrin (hydrochloride)]
- Cholesterol-free media + simvastatin (0.04 μM) [1, 19]: 1.122
- Complete Media [1, 20]: 1.063
- Difference [1, 21]: −0.06
- Difference [2, 6]: −0.74
- Cholesterol-free [2, 7]: 1.769
- Complete [2, 8]: 1.024

Compound: C=CC(N)CCC(=O)O (stereo not drawn) [Vigabatrin]
- Cholesterol-free media + simvastatin (0.04 μM) [1, 19]: 0.8099
- Complete Media [1, 20]: 0.7743
- Difference [1, 21]: −0.04
- Cholesterol-free [2, 16]: 0.7255
- Complete [2, 17]: 1.221
- Difference [2, 18]: 0.50

Compound: O=C(O)C(c1ccccc1)(c1ccccc1)c1ccccc1.OCc1cc([C@@H](O)CNCCCCCCOCCOCc2c(Cl)cccc2Cl)ccc1O [Vilanterol (trifenatate)]
- Cholesterol-free media + simvastatin (0.04 μM) [1, 19]: 0.9213
- Complete Media [1, 20]: 0.9369
- Difference [1, 21]: 0.02
- Cholesterol-free [2, 13]: 1.453
- Complete ([2]; NCI-H292 cells, complete media): 1.047
- Difference [2, 22]: −0.41

Source: patent US20250144067A1, “PERSONALIZED STARVATION THERAPY FOR CANCER” (Faeth Therapeutics, Inc., priority 2021, published 2025)
